Results as given in ChEMBL document CHEMBL4834464, “Fragment-based Scaffold Hopping: Identification of Potent, Selective, and Highly Soluble Bromo and Extra Terminal Domain (BET) Second Bromodomain (BD2) Inhibitors” (J Med Chem, 2021).
In brackets after ≈: the same amount, converted by molar mass.

Assays:
[1] = Solubility of the compound by CLND assay; assay type: physicochemical
[2] = Distribution coefficient, logD of the compound by chromatography; assay type: physicochemical; details: octanol/water
[3] = Solubility of the compound in FaSSIF at pH 6.5 using crystalline form of sample incubated for 16 hrs by HPLC gradient analysis; assay type: physicochemical
[4] = Permeability of compound by AMP assay; assay type: ADME; details: not told; read-out: permeability
[5] = Kinetic solubility of compound […] using the charged aerosol detector (CAD) analysis; assay type: physicochemical; details: read-out: Kinetic_solubility
[6] = Solubility of the compound in FaSSIF at pH 6.5 incubated for 16 hrs by HPLC gradient analysis; assay type: physicochemical; details: for solubility: simulated gi fluid, pH 6.5, 16 h; for solubility at 16 h: FaSSIF, pH 6.5
[7] = Intrinsic clearance in dog hepatocytes measured per gram of tissue by LC-MS/MS method; assay type: ADME, cell-based, Canis lupus familiaris, Hepatocyte
[8] = Intrinsic clearance in human hepatocytes measured per gram of tissue incubated for 120 mins by LC-MS/MS method; assay type: ADME, cell-based, Hepatocyte; details: 2 h
[9] = Intrinsic clearance in Wistar han rat hepatocytes measured per gram of tissue incubated for 60 mins by LC-MS/MS method; assay type: ADME, cell-based, Hepatocyte; details: 1 h

| SMILES | solubility kinetic [1] [µg/mL] | chromatographic logD [2] | solubility thermodynamic at 16 h [3] [µg/mL] | Papp [4] [×10⁻⁶ cm/s] | solubility kinetic [5] [µg/mL] | solubility [6] [µg/mL] | solubility at 16 h [6] [µg/mL] | CLint [7] [mL/min/g] | CLint [8] [mL/min/g] | CLint [9] [mL/min/g] |
| --- | --- | --- | --- | --- | --- | --- | --- | --- | --- | --- |
| CNC(=O)c1cc(C(=O)N[C@H]2CC[C@H](OC)CC2)c([C@@H](C)c2ccccc2)o1 | ≥ 192 | 4.1 | 141 (≈ 367 µM) | 30.3 |  |  |  |  |  |  |
| CNC(=O)c1cc(C(=O)N[C@H]2CC[C@H](O)CC2)n([C@@H](C)c2ccccc2Cl)n1 |  | 3.9 |  | 10 | ≥ 182 |  |  |  |  |  |
| CNC(=O)c1cc(C(=O)NC2CC2)n([C@@H](C)c2ccccc2)n1 | ≥ 165 | 3.6 |  | > 40 | ≥ 165 | 939 (≈ 3010 µM) |  |  |  |  |
| CC[C@@H](c1ccccc1)n1nc(C(=O)NC)cc1C(=O)N[C@H]1[C@@H]2C[C@@H](O)C[C@@H]21 |  | 3.3 |  | 12 |  |  | 56 (≈ 146 µM) |  |  |  |
| CCNC(=O)c1cc(C(=O)NC)nn1[C@@H](C)c1ccccc1 | ≥ 137 | 3.7 |  | 43.5 |  |  |  |  |  |  |
| CNC(=O)c1cc(C(=O)N[C@H]2CC[C@H](O)CC2)c([C@@H](C)c2cccc(OC)c2)o1 |  | 2.9 |  | 4.4 | ≥ 113 |  | 868 (≈ 2170 µM) |  |  |  |
| CNC(=O)c1cc(C(=O)N[C@H]2[C@@H]3C[C@H](O)C[C@@H]32)n([C@@H](C)c2cccc(Cl)c2)n1 |  | 3.7 |  | 33.3 | ≥ 168 |  | 327 (≈ 812 µM) | 8.3 | 10.8 | 17.3 |
| CCC(=O)c1c[nH]c(C(=O)NC)c1 |  | 3.1 |  | 20 | 87 (≈ 483 µM) |  | 13 (≈ 72.1 µM) |  |  |  |
| CNC(=O)c1cc(C(=O)N[C@H]2CC[C@H](O)CC2)n([C@@H](C)c2ccc(C(F)(F)F)cc2)n1 |  | 3.9 |  | 27 | ≥ 175 |  |  |  |  |  |
| CNC(=O)c1cc(C(=O)N[C@H]2CC[C@H](O)CC2)c([C@@H](C)c2cccc(F)c2)o1 |  | 4.1 |  | 7.3 | ≥ 63 |  |  |  |  |  |
| CNC(=O)c1cc(C(=O)N[C@H]2CC[C@H](O)CC2)n([C@@H](C)c2cccc(C)c2)n1 |  | 3.4 |  | 11 | ≥ 180 |  |  |  |  |  |
| CNC(=O)c1cc(C(=O)NCCO)c([C@@H](C)c2ccccc2)o1 | ≥ 132 | 2.3 | 925 (≈ 2920 µM) | 3.3 |  |  |  |  |  |  |
| CNC(=O)c1cc(C(=O)N[C@H]2CC[C@H](O)CC2)c([C@@H](C)c2ccc(Cl)cc2)o1 |  | 3.5 |  | 15 | ≥ 118 |  |  |  |  |  |
| CNC(=O)c1cc(C(=O)N[C@H]2[C@@H]3C[C@@H](O)C[C@@H]32)n([C@@H](C)c2ccccc2)n1 | ≥ 291 | 3.2 | 101 (≈ 274 µM) | 6.1 |  |  |  |  |  |  |
| CNC(=O)c1cc(C(=O)NC2CC2)c([C@H](C)c2ccccc2)o1 |  | 3.6 |  | > 0.4 | ≥ 112 |  |  |  |  |  |
| CNC(=O)c1cc(C(=O)NC)n([C@@H](C)c2ccccc2)n1 | ≥ 88 | 3 |  | 28 |  |  |  |  |  |  |
| CCCNC(=O)c1cc(C(=O)NC)oc1[C@@H](C)c1ccccc1 | ≥ 127 | 4.2 |  | 48 |  |  |  |  |  |  |
| CNC(=O)c1cc(C(=O)N[C@H]2CC[C@H](O)CC2)c([C@@H](C)c2cccc(C)c2)o1 |  | 3.3 |  | 8.5 | ≥ 172 |  | > 1000 |  |  |  |
| CNC(=O)c1cc(C(=O)N[C@H]2CC[C@H](O)CC2)n([C@@H](C)c2cccc(C(F)(F)F)c2)n1 |  | 4.1 |  | 28 | 7 (≈ 16 µM) |  |  |  |  |  |

| SMILES | solubility kinetic [1] [µg/mL] | chromatographic logD [2] | solubility thermodynamic at 16 h [3] [µg/mL] | Papp [4] [×10⁻⁶ cm/s] | solubility kinetic [5] [µg/mL] | solubility [6] [µg/mL] | solubility at 16 h [6] [µg/mL] | CLint [7] [mL/min/g] | CLint [8] [mL/min/g] | CLint [9] [mL/min/g] |
| --- | --- | --- | --- | --- | --- | --- | --- | --- | --- | --- |
| CCCNC(=O)c1cc(C(=O)NC)nn1[C@@H](C)c1ccccc1 | ≥ 132 | 4.4 |  | 56 |  |  |  |  |  |  |
| CCNC(=O)c1cc2c(-c3cc(C(C)(C)O)ccc3Oc3c(C)cc(F)cc3C)cn(C)c(=O)c2[nH]1 [ABBV-744] |  | 5.1 |  | 41.3 | 26 (≈ 52.9 µM) |  |  |  | 5.1 |  |
| CNC(=O)c1cc(C(=O)NC2CCOCC2)n([C@@H](C)c2ccccc2)n1 | 31 (≈ 87 µM) | 3.6 |  | 27 |  |  |  |  |  |  |
| CNC(=O)c1cc(C(=O)NC2CC2)n(Cc2ccccc2)n1 |  | 3.1 |  | > 8 | ≥ 155 |  | 285 (≈ 955 µM) |  |  |  |
| CNC(=O)c1cc(C(=O)N[C@H]2CC[C@H](O)CC2)c([C@@H](C)c2ccccc2Cl)o1 |  | 3.1 |  | 7.8 | ≥ 242 |  | > 1000 |  |  |  |
| CNC(=O)c1cc(C(=O)N[C@H]2CC[C@H](O)CC2)n([C@@H](C)c2ccc(Cl)cc2)n1 |  | 3.7 |  | 18 | ≥ 132 |  | 102 (≈ 252 µM) |  |  |  |
| CC[C@@H](c1ccccc1)n1nc(C(=O)NC)cc1C(=O)N[C@H]1CC[C@H](O)CC1 |  |  |  | 7 | 138 (≈ 359 µM) |  | > 1000 |  |  |  |
| CNC(=O)c1cc(C(=O)NC(C)CO)c([C@@H](C)c2ccccc2)o1 (stereo partly drawn) | ≥ 121 | 2.7 |  | 5.7 |  |  |  |  |  |  |
| CNC(=O)c1cc(C(=O)NCCO)n([C@@H](C)c2ccccc2)n1 | ≥ 139 | 2.4 |  | 5.9 |  |  |  |  |  |  |
| CNC(=O)c1cc(C(=O)NC(C)CO)n([C@@H](C)c2ccccc2)n1 (stereo partly drawn) | ≥ 132 | 2.8 |  | 12 |  |  |  |  |  |  |
| CNC(=O)c1cc(C(=O)NC2CC2)c([C@@H](C)c2ccccc2)o1 | ≥ 145 | 3.6 |  | 50 | ≥ 145 | 423 (≈ 1350 µM) |  |  |  |  |
| CCNC(=O)c1cc(C(=O)NC)oc1[C@@H](C)c1ccccc1 | ≥ 148 | 3.5 | 432 (≈ 1440 µM) | 42 |  |  |  |  |  |  |
| CNC(=O)c1cc(C(=O)NC2CC2)cn([C@H](C)c2ccccc2)c1=O |  | 3.5 |  |  |  |  |  |  |  |  |
| CC[C@@H](c1ccccc1)n1nc(C(=O)NC)cc1C(=O)N[C@H]1[C@@H]2C[C@H](O)C[C@@H]21 |  | 3.6 |  | 23 |  |  |  |  |  |  |
| CNC(=O)c1cc(C(=O)NC2CC2)cn([C@@H](C)c2ccccc2)c1=O |  | 3.3 |  |  |  |  | 699 (≈ 2060 µM) |  |  |  |
| CNC(=O)c1cc(C(=O)N[C@H]2CC[C@H](O)CC2)c([C@@H](C)c2ccc(C)cc2)o1 |  | 3.4 |  | 10.8 | ≥ 245 |  | > 1000 |  |  |  |
| CNC(=O)c1cc(C(=O)N[C@H]2CC[C@H](O)CC2)n([C@@H](C)c2cccc(Cl)c2)n1 |  | 3.7 |  | 23.5 | ≥ 143 |  | 196 (≈ 484 µM) |  |  |  |
| CNC(=O)c1cc(C(=O)N[C@H]2CC[C@H](OC)CC2)n([C@@H](CO)c2ccccc2)n1 |  | 2.7 |  | 3.9 | ≥ 164 |  | > 1000 |  |  |  |
| CNC(=O)c1cc(C(=O)N[C@H]2[C@@H]3C[C@@H](OC)C[C@@H]32)n([C@@H](C)c2ccccc2)n1 | ≥ 150 | 2.7 | > 1000 | 44 |  |  |  |  |  |  |
